Converted amounts (≈) assume the structure as drawn. Peptide text beside a SMILES is read from it.
T1: NTHi #1128 fimbrial protein (Haemophilus influenzae, UniProt P45996)
T1 construct: isolated, reassembled, homologous fimbrial protein from NTHi; endogenous in cells; host or cells: NTHi strain #1128 (protein isolated from the bacterial outer membrane)
T1 sequence (P45996 22-359): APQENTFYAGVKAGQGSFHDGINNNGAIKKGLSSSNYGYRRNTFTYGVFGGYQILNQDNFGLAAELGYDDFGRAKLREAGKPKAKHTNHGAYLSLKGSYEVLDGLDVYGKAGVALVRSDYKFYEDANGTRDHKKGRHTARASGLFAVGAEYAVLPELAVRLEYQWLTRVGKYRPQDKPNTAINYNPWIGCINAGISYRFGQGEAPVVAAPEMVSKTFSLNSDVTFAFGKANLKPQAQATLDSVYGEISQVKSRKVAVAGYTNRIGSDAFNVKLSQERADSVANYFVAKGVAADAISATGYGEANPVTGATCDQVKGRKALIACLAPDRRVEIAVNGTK

T2: NTHi #1128 isolated fimbrin protein (25 and 37 kDa species) (Haemophilus influenzae, UniProt P45996)
T2 construct: isolated, reassembled, homologous fimbrial protein from NTHi; endogenous in cells; host or cells: NTHi strain #1128 (protein isolated from the bacterial outer membrane)
T2 sequence (P45996 22-359): T1 sequence (P45996 22-359)

B1: fimbrin: isolated fimbrin protein preparation from NTHi strain #1128, used as comparison immunogen (protein)
chain: T1 sequence (P45996 22-359)

Legend:
[1] = molecular target: T1, NTHi #1128 fimbrial protein; type: in vivo, non-typable Haemophilus influenzae; conditions: chinchilla sera 2 weeks after second dose; ELISA
Procedure: (§1) The chinchillas received a second dose of 50 μg of either the LB1 or LB2 in incomplete Freund's adjuvant 30 days later. Sera was obtained 2 weeks after the second dose.

[2] = molecular target: T2, NTHi #1128 isolated fimbrin protein (25 and 37 kDa species); type: binding, non-typable Haemophilus influenzae; conditions: rabbit antisera; fimbrin isolated from NTHi strain #1128
Procedure: Two rabbits were immunized with the LB1 synthetic chimeric fimbrin peptide and two rabbits were immunized with the LB2 synthetic chimeric fimbrin peptide. Rabbits received an initial immunizing dose of 500 μg of either the LB1 or LB2 in complete Freund's adjuvant. The rabbits received a second dose of 400 μg of the synthetic chimeric fimbrin peptide 21 days later. The rabbits received a third dose of synthetic chimeric fimbrin peptide in complete Freund's adjuvant 42 days later with 400 μg of the same peptide in either incomplete Freud's adjuvant (IFA) or phosphate buffered saline (PBS) (one rabbit per diluent). Sera was obtained 3 weeks after each dose. The sera from each animal was assessed for titer and specificity against LB1, LB2 and fimbrial protein, by both ELISA and Western blot.

[3] = system: fimbrin from NTHi #1128 and NTHi #86-028NP; assay: Western immunoblot of chinchilla antisera; type: binding, non-typable Haemophilus influenzae; conditions: for Western immunoblot recognition by antisera of homologous fimbrin / peptides: NTHi #1128 OMP preparation, isolated fimbrin, LB1, LB2; for Western immunoblot recognition by antisera of heterologous fimbrin: NTHi #86-028NP
Text: FIG. 2A is a western immunoblot of chinchilla anti-LB1 antisera. Lane a contains a mixture of sera and NTHi #1128 enriched OMP preparation. Lane b contains a mixture of sera and isolated fimbrin from NTHi #1128. Lane c contains a mixture of sera and LB1. Lane d contains a mixture of sera and LB2. Lane e contains a mixture of sera and NTHi #86-028NP enriched OMP preparation. Lane f contains a mixture of sera and isolated fimbrin from NTHi #86-028NP. The lane marked “Std” contains pre-stained molecular mass markers; mass in kDa is given along left side of immunoblot.
FIG. 2B is a western immunoblot of chinchilla anti-LB2 antisera. Lane a contains a mixture of sera and NTHi #1128 enriched OMP preparation. Lane b contains a mixture of sera and isolated fimbrin from NTHi #1128. Lane c contains a mixture of sera and LB1. Lane D contains a mixture of sera and LB2. Lane e contains a mixture of sera and NTHi #86-028NP enriched OMP preparation. Lane f contains a mixture of sera and isolated fimbrin from NTHi #86-028NP. The lane marked “Std” contains pre-stained molecular mass markers; mass in kDa is given along left side of immunoblot.
FIG. 2C is a western immunoblot of chinchilla anti-fimbrial protein antisera. Lane a contains a mixture of sera and NTHi #1128 enriched OMP preparation. Lane b contains a mixture of sera and isolated fimbrin from NTHi #1128. Lane c contains a mixture of sera and LB1. Lane d contains a mixture of sera and LB2. Lane e contains a mixture of sera and NTHi #86-028NP enriched OMP preparation. Lane f contains a mixture of sera and isolated fimbrin from NTHi #86-028NP. The lane marked “Std” contains pre-stained molecular mass markers; mass in kDa is given along left side of immunoblot.
as §1

NTHi strain #1128 = assay: Inhibition of adherence of NTHi to active ciliated chinchilla tracheal mucosal epithelium; type: cell-based, non-typable Haemophilus influenzae; conditions: dose dependence, 50 and 100 μg/ml
Procedure: LB1 and LB2 were each added to the lumen of excised 15 chinchilla tracheas and incubated for about 1 hour. Next 10^8cFu NTHi/ml were added to the cultures and incubated for about 1 hour. The tracheas were rinsed, homogenized, diluted and plated onto chocolate agar. The NTHi colonies were then counted.

NTHi strain 1128 = assay: Nasopharyngeal colonization by NTHi in immunized chinchillas (nasopharyngeal lavage); type: in vivo, chinchilla
Procedure: Nasopharyngeal colonization by NTHi was/were examined in two separate trials, study A and study B.
In study A, five cohorts of four chinchillas each were actively immunized with one of the following preparations: in complete Freund's adjuvant or a saline control preparation; 100 μg of the synthetic chimeric fimbrin peptide LB1, 100 μg of a total outer membrane protein preparation from strain #1128; 100 μg of the synthetic chimeric fimbrin peptide LB2; 10 μg isolated fimbrin protein preparation from strain #1128. The total outer membrane preparation and fimbrin were assessed for endotoxin content prior to their use as an immunogen via a chromogenic Amoebocyte Lysate assay which is commercially available from Whittaker Bioproducts under the designation QCL-1000. The preparations were subcutaneously injected into the chinchillas.
Then 30 days later the animals received a booster of one-half of the initial dosage of the same immunogen but in incomplete Freund's adjuvant. Ten days later they received 6×10^6 TCID50 adenovirus intranasally. Thereafter, these five cohorts were divided into two groups each and challenged intranasally, about 5×10^7cfu of NTHi strain 1128. The chinchillas were subject to nasopharyngeal lavage over a 21 day period, and the lavage fluid was examined and quantified for NTHi. The NTHi concentration was determined by plating on selective media. The NTHi lavage fluid concentration was plotted over time.
Again, the NTHi lavage fluid concentration was plotted over time.

Solubility in water = type: physicochemical
[4] = system: antibodies in sera directed to NTHi; assay: Anti-serum ELISA using synthetic chimeric fimbrin peptides as coating antigen; type: binding; conditions: peptide as ELISA antigen, chinchilla sera
Procedure: An anti-serum Elisa was performed by first coating an immulon 1, flat bottom plate containing 96 wells with varied concentrations of LB1 and LB2 according to the dilute checkerboard assay method. The LB1 and LB2 were diluted first in carbonate-bicarbonate buffer at pH 9.6. This coating buffer contained 1.59 g/L NaCO3, 2.93 g/L NaHCO3 at a pH of 9.6. 50 μl of the LB1 or LB2 were added for each well and incubated at 4° C. overnight. After the overnight incubation, the liquid was emptied from the plates and 100 μl per well of 10 mM PBS at pH 7.4 with 0.5% BSA was added, and incubated at 37° C. for 1 hour. Next, the liquid was emptied from the plate and washed three times with 10 mM PBS at pH 7.4 with 0.05% Tween 20 (PBT) at a volume of 250 μl per well. Then the plate was emptied by pounding three times onto paper towels. Next, 50 μl per well of the sera to be assayed was diluted in 10 mM PBS at a pH of 7.4 and added to the plate and incubated at 37° C. for one hour. The liquid was then emptied from the plates and washed three times with 10 mM PBS at pH 7.4 containing 0.05% Tween 20 (PBT) at a volume of 250 μl per well and the plates were pounded three times onto paper towels. Next, 500 μl per well of secondary antibody diluted 1 to 1000 times in PBT was added. Where the sera to be assayed was rabbit, the secondary antibody was HRP chimeric goat anti-rabbit antibody. Where the sera to be assayed was chinchilla sera, then the secondary antibody was HRP protein A. The secondary antibody was incubated at 37° C. for one hour. Next, the liquid was emptied from the plates and washed three times with 10 mM PBS at pH 7.4 containing 0.05% Tween 20. Next, one tablet o-phenylenediamine was suspended in 12 ml citrate phosphate buffer at pH 5.0. The citrate phosphate buffer contained 0.1 M citric acid, 1.0 M Na2HPO4 at pH 5.0. Next 12 μl 30% H2O2 was added to the o-phenylenediamine solution and 100 μl of this mixture was added to each well. The solution was incubated at room temperature in the dark and after 10 minutes, the absorbencies were read at 400 nm. The reaction was stopped at 16 minutes with 100μ per well of 2NH2SO4 and the plates were then read at 490 nm.

[5] = system: native fimbriae of whole, unfixed NTHi strain #1128; assay: Indirect immunogold labeling of unfixed NTHi with chinchilla antiserum (transmission electron micrograph); type: binding, non-typable Haemophilus influenzae
Text: FIG. 3 is a transmission electron micrograph of two unfixed NTHi strain #1128 cells, shown at bottom of the Figure, which were indirectly immuno-labeled with chinchilla anti-LB1IFA serum and 10 nm gold-chimeric Protein A.
Two unfixed NTHi strain #1128 cells were indirectly immunolabeled with chinchilla anti-LB1IFA serum and 10 nm gold-chimeric Protein A. The preparation was subjected to stable, low-angle shadow casting with platinum and palladium to impart a sense of height to low-profile fimbriae.

[6] = study A, chinchillas immunized with 100 μg peptide plus booster, intranasal challenge about 5×10^7 cfu NTHi strain 1128, FIG. 4
[7] = study B, higher intranasal challenge dose 1.5×10^8 cfu/animal NTHi #1128, FIG. 5

Molecule | Reciprocal Titer of Sera against: NTHi #1128 fimbrial protein [1] | Western blot reactivity of antisera with fimbrin [2] | Western immunoblot recognition by antisera of homologous fimbrin / peptides [3] | Effect on inhibition of adherence of NTHi strain #1128 to ciliated chinchilla tracheal epithelium (NTHi strain #1128) | NTHi in nasopharyngeal lavage fluid by Day 21 (NTHi strain 1128; [6]) | NTHi in nasopharyngeal lavage fluid by Day 21 (NTHi strain 1128; [7]) | solubility (Solubility in water) [µg/mL] | Reciprocal Titer ([4]; post infection) | Reciprocal Titer ([4]; pre infection) | Western immunoblot recognition by antisera of heterologous fimbrin [3] | Recognition of native fimbriae by antiserum (immunogold labeling) [5]
CC[C@H](C)[C@H](NC(=O)[C@H](CC(C)C)NC(=O)[C@H](CO)NC(=O)[C@H](CC(C)C)NC(=O)[C@H](CC(C)C)NC(=O)[C@H](CCCCN)NC(=O)[C@H](CC(C)C)NC(=O)[C@H](CO)NC(=O)[C@@H]1CCCN1C(=O)CNC(=O)[C@H](CCCCN)NC(=O)[C@H](CCCCN)NC(=O)[C@H](Cc1c[nH]cn1)NC(=O)[C@H](CC(=O)O)NC(=O)[C@H](CCCNC(=N)N)NC(=O)[C@@H](NC(=O)CNC(=O)[C@H](CC(N)=O)NC(=O)[C@H](C)NC(=O)[C@H](CC(=O)O)NC(=O)[C@H](CCC(=O)O)NC(=O)[C@H](Cc1ccc(O)cc1)NC(=O)[C@H](Cc1ccccc1)NC(=O)[C@H](CCCCN)NC(=O)[C@H](Cc1ccc(O)cc1)NC(=O)[C@H](CC(=O)O)NC(=O)[C@H](CO)NC(=O)[C@@H](N)CCCNC(=N)N)[C@@H](C)O)C(=O)N[C@@H](CCCCN)C(=O)NCC(=O)N[C@H](C(=O)N[C@H](C(=O)N[C@H](C(=O)N[C@@H](Cc1c[nH]cn1)C(=O)N[C@@H](CCCNC(=N)N)C(=O)N[C@@H](CC(C)C)C(=O)N[C@@H](CCC(=O)O)C(=O)NCC(=O)N[C@H](C(=O)N[C@@H](CCC(=O)O)C(=O)O)C(C)C)C(C)C)[C@@H](C)CC)C(C)C [LB1] (H-RSDYKFYEDANGTRDHKKGPSLKLLSLIKGVIVHRLEGVE-OH) | 15,000 | sera reactivity to fimbrin (both molecular weight species) occurred only after immunization | only recognized the LB1 | dose-dependent effect on inhibition of adherence | 0 | 0 | ~10000 (≈ 2190 µM) | >500 | ≦100 |  | 
CC[C@H](C)[C@H](NC(=O)[C@H](CC(C)C)NC(=O)[C@H](CO)NC(=O)[C@H](CC(C)C)NC(=O)[C@H](CC(C)C)NC(=O)[C@H](CCCCN)NC(=O)[C@H](CC(C)C)NC(=O)[C@H](CO)NC(=O)[C@@H]1CCCN1C(=O)CNC(=O)[C@@H](NC(=O)[C@H](CC(N)=O)NC(=O)[C@@H]1CCCN1C(=O)[C@H](CCCCN)NC(=O)[C@H](CC(=O)O)NC(=O)[C@H](CCC(N)=O)NC(=O)[C@@H]1CCCN1C(=O)[C@H](CCCNC(=N)N)NC(=O)[C@H](Cc1ccc(O)cc1)NC(=O)[C@H](CCCCN)NC(=O)CNC(=O)[C@@H](NC(=O)[C@H](CCCNC(=N)N)NC(=O)[C@@H](NC(=O)[C@H](CC(C)C)NC(=O)[C@H](Cc1c[nH]c2ccccc12)NC(=O)[C@H](CCC(N)=O)NC(=O)[C@@H](N)Cc1ccc(O)cc1)[C@@H](C)O)C(C)C)[C@@H](C)O)C(=O)N[C@@H](CCCCN)C(=O)NCC(=O)N[C@H](C(=O)N[C@H](C(=O)N[C@H](C(=O)N[C@@H](Cc1c[nH]cn1)C(=O)N[C@@H](CCCNC(=N)N)C(=O)N[C@@H](CC(C)C)C(=O)N[C@@H](CCC(=O)O)C(=O)NCC(=O)N[C@H](C(=O)N[C@@H](CCC(=O)O)C(=O)O)C(C)C)C(C)C)[C@@H](C)CC)C(C)C [LB2] (H-YQWLTRVGKYRPQDKPNTGPSLKLLSLIKGVIVHRLEGVE-OH) | 10,000 |  | recognized homologous fimbrin |  | 0 | performed less well | ~10000 (≈ 2180 µM) | 500 | ≦100 | recognized heterologous fimbrin contained in the outer membrane preparation | Equivalent results
B1 |  |  | recognizes itself |  |  |  |  |  |  | recognizes a heteroloous fimbrin | 
